# Source: the supplement of paper PMC10307832
# Compound: C1=CC2=C(C=CC(=C2)C=C3C(=O)NC(=NCC4=CC=CS4)S3)N=C1 [RO-3306]
# Assay: relative viability (nuclei count vs DMSO), 5 days (fraction); higher = more cells survive
# In short: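 A plate was accepted only when its control CV was below 25% and the cells had doubled at least once. Viability is defined from nuclear counts as treated wells divided by vehicle wells, with the median taken across plates. That median covers lung cancer cell lines grown in 1536-well plates, dosed by pinning at five √10-spaced library-drug concentrations, and counted in MetaXpress from 4× Hoechst images after 5 days.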
Cell Line,relative viability (0.01 µM),relative viability (0.03162 µM),relative viability (0.1 µM),relative viability (0.3162 µM),relative viability (1 µM)
NCI-H441,1.09,0.795,1.11,1.13,1.04
HCC-366,1.12,0.951,0.966,1.09,1.06
NCI-H2085,0.985,0.936,0.98,1.05,0.995
SW 1573,1.02,0.781,0.945,1.05,0.979
NCI-H1299,1.06,1,1.03,1.04,1.09
H3255,1.02,0.913,0.995,0.946,0.93
NCI-H2023,1.18,0.803,0.901,1,0.858
HOP-62,1.09,0.966,1.06,1.01,1.07
LC-2-ad,0.955,0.85,0.929,1.02,0.95
NCI-H2347,1.19,0.882,1.05,1,1
NCI-H1651,0.978,0.875,0.994,1.03,0.934
COR-L23,1.03,0.892,1.04,1.04,1.14
ABC-1,0.94,0.769,0.901,0.887,0.817
NCI-H1755,1.02,1,0.98,0.985,1.02
NCI-H2170,1.06,0.946,0.952,1.01,0.991
NCI-H23,0.958,0.715,0.837,1.03,1.02
NCI-H1395,0.895,0.869,0.729,0.887,0.707
LOU-NH91,0.931,0.914,0.934,0.918,0.852
NCI-H647,0.881,0.841,0.928,1.07,0.864
NCI-H522,1.09,0.867,0.827,0.875,0.962

Cell Line,relative viability (0.01 µM),relative viability (0.03162 µM),relative viability (0.1 µM),relative viability (0.3162 µM),relative viability (1 µM)
HCC-78,1.09,0.878,0.981,1.02,0.924
201T,1.06,0.969,0.956,0.987,0.746
ChaGo-K-1,1.03,0.933,1.01,1.04,0.699
NCI-H1993,0.808,0.719,0.893,0.849,0.941
EMC-BAC-2,0.943,0.844,0.915,1.12,0.616
IA-LM,1.05,0.683,0.89,1.05,0.869
HCC-15,1.13,0.897,0.998,1.07,0.992
EKVX,1,0.888,1,1.03,0.915
PC-14,1.05,0.836,1.05,1.05,0.926
EBC-1,1.04,0.807,1.01,1.14,1.01
LK-2,1.07,0.855,0.922,1.17,1.02
LCLC-97TM1,0.895,0.799,0.932,1.04,0.942
NCI-H520,1.05,0.834,1.01,1.04,0.957
NCI-H2405,1,0.949,0.995,1.02,0.906
NCI-H596,0.947,0.807,0.871,1.03,0.94
EPLC-272H,0.866,0.73,0.921,0.901,0.791
RERF-LC-KJ,1.07,0.86,0.983,1.04,1.01
HARA,0.96,0.909,0.886,0.985,1.03
NCI-H1623,0.99,0.909,0.958,1.08,0.844
NCI-H838,1.03,0.908,0.992,1.07,0.95
